Measurements taken from PubChem BioAssay (NCI).
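Assay format: 96-well plates, 48-hour exposure. Here, GI50 denotes the concentration required for 50% inhibition of growth. TGI: concentration producing complete growth inhibition.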

Assays:
Assay in all cases: inhibition of tumour cell growth, NCI panel, 48 h
[1] = system: SK-MEL-5 melanoma
[2] = system: M14 melanoma
[3] = system: UO-31 renal
[4] = system: NCI-H23 lung
[5] = system: U251 CNS
[6] = system: SF-539 CNS
[7] = system: OVCAR-3 ovarian
[8] = system: NCI-H522 lung
[9] = system: SN12C renal
[10] = system: HCC-2998 colon

For `CC1CCC(C#N)(NOC2=NCCN2)CC1` (centres undefined), the GI50 [1] was 38.6 µM, the TGI [1] was over 100 µM and the GI50 [2] was 46.4 µM. It also gave a TGI [2] of over 100 µM, a GI50 [3] of 11.6 µM and a TGI [3] of over 100 µM. For the same compound, the GI50 [4] was 34 µM, the TGI [4] was over 100 µM and the GI50 [5] was 15.8 µM. It also gave a TGI [5] of 32.4 µM, a GI50 [6] of 23.4 µM and a TGI [6] of 45.4 µM. The GI50 [7] was 28.9 µM, the TGI [7] was over 100 µM and the GI50 [8] was 39.6 µM. The TGI [8] was over 100 µM, the GI50 [9] was 36.2 µM and the TGI [9] was over 100 µM.
Work on `C/C(CC(=O)Nc1ccc(NC(=O)/C(C)=N/NS(=O)(=O)c2ccc(C)cc2)cc1)=N\NS(=O)(=O)c1ccc(C)cc1` yielded a TGI [1] of over 100 µM, a TGI [2] of over 100 µM and a TGI [3] of over 100 µM. For the same compound, the TGI [4] was over 100 µM, the TGI [5] was over 100 µM and the TGI [6] was over 100 µM. The TGI [10] was over 100 µM, the TGI [7] was over 100 µM and the TGI [9] was over 100 µM.
Work on `Cc1cc(Cl)ccc1Nc1nc(C(F)(F)F)ccc1C(=O)N/N=C/c1ccc(N(C)C)cc1` yielded a GI50 [1] of 2.56 µM, a TGI [1] of over 100 µM and a GI50 [2] of 1.2 µM. It also gave a TGI [2] of 8.75 µM, a GI50 [3] of 2.97 µM and a TGI [3] of over 100 µM. The GI50 [4] was 3.92 µM, the TGI [4] was over 100 µM and the GI50 [5] was 1.42 µM. For the same compound, the TGI [5] was over 100 µM, the GI50 [6] was 5.87 µM and the TGI [6] was over 100 µM. For the same compound, the GI50 [10] was 1.43 µM, the TGI [10] was over 100 µM and the GI50 [7] was 0.563 µM. For the same compound, the TGI [7] was over 100 µM, the GI50 [8] was 3.07 µM and the TGI [8] was over 100 µM. For the same compound, the GI50 [9] was 3.99 µM and the TGI [9] was over 100 µM.
For `CCCCCC/C=C\CCCCCCCCCc1c(O)c(OC)cc(O)c1CN(C)C`, the TGI [1] was 18.6 µM, the TGI [2] was 27.8 µM and the TGI [3] was 15.5 µM. It also gave a TGI [4] of 23.1 µM, a TGI [5] of 13.4 µM and a TGI [6] of 22.2 µM. The TGI [7] was 19 µM, the TGI [8] was 3.25 µM and the TGI [9] was 20.7 µM.
`Cn1c(=O)c2[nH]cnc2n(CC(=O)O)c1=O` was tested, and the TGI [1] was over 100 µM, the TGI [2] was over 100 µM and the TGI [3] was over 100 µM. For the same compound, the TGI [4] was over 100 µM, the TGI [5] was over 100 µM and the TGI [6] was over 100 µM. The TGI [7] was over 100 µM, the TGI [8] was over 100 µM and the TGI [9] was over 100 µM.
Compound `N#CNc1nc(C(=O)Nc2ccc(Cl)cc2)cc(-c2ccccc2)n1` has a TGI [1] of over 100 µM, a TGI [2] of over 100 µM and a TGI [3] of over 100 µM. For the same compound, the TGI [4] was over 100 µM, the TGI [5] was over 100 µM and the TGI [6] was over 100 µM. It also gave a TGI [10] of over 100 µM, a TGI [7] of over 100 µM and a TGI [9] of over 100 µM.
Work on `COC(=O)C1CCC(N2C(=O)CCC2C(=O)OC)=N1` (centres undefined) yielded a TGI [2] of over 100 µM, a TGI [3] of over 100 µM and a TGI [4] of over 100 µM. For the same compound, the TGI [5] was over 100 µM, the TGI [10] was over 100 µM and the TGI [7] was over 100 µM. It also gave a TGI [8] of over 100 µM and a TGI [9] of over 100 µM.
For `O=c1cc(-c2ccc[nH]2)[nH]c2cc3c(cc12)OCO3`, the GI50 [1] was 7.74 µM, the TGI [1] was over 100 µM and the TGI [2] was over 100 µM. For the same compound, the TGI [3] was over 100 µM, the TGI [5] was over 100 µM and the TGI [6] was 84.6 µM. For the same compound, the TGI [10] was 86.5 µM, the GI50 [7] was 30.8 µM and the TGI [7] was over 100 µM. The TGI [9] was over 100 µM.
`Cc1cccc(NC(=O)Cc2nc3ccccc3s2)c1C` was tested, and the TGI [1] was over 100 µM, the TGI [2] was over 100 µM and the TGI [3] was over 100 µM. The TGI [4] was over 100 µM, the TGI [6] was over 100 µM and the TGI [10] was over 100 µM. For the same compound, the TGI [7] was over 100 µM, the TGI [8] was over 100 µM and the TGI [9] was over 100 µM.
Work on `O=C1c2c(O)cccc2C(C(=O)CCCC(=O)C2c3cccc(O)c3C(=O)c3c(O)cccc32)c2cccc(O)c21` yielded a TGI [1] of 0.671 µM, a TGI [2] of 2.48 µM and a TGI [3] of 1.08 µM. For the same compound, the TGI [4] was 1.13 µM, the TGI [5] was 1.88 µM and the TGI [6] was 0.675 µM. It also gave a TGI [10] of 3.4 µM, a TGI [7] of 0.798 µM and a TGI [9] of 12.2 µM.
In the case of `O=C(Nc1ccccc1)OCc1nc2c([nH]1)C(=O)C=CC2=O`, the TGI [1] is reported as 27.3 µM, the TGI [2] is reported as 29.8 µM and the TGI [3] is reported as 30.5 µM. It also gave a TGI [4] of 40 µM, a TGI [5] of 25.5 µM and a TGI [6] of over 100 µM. The TGI [10] was 30.1 µM, the TGI [7] was 30.8 µM and the TGI [9] was 36.3 µM.
`CC(=O)OC1C/C(C)=C/[C@H](O)CC(C)/C=C/[C@@]2(C)CCC(C(C)(C)O)C12` (some centres undefined) showed a TGI [1] of over 100 µM, a TGI [2] of over 100 µM and a TGI [3] of over 100 µM. It also gave a TGI [4] of over 100 µM, a TGI [5] of over 100 µM and a TGI [6] of over 100 µM. It also gave a TGI [10] of over 100 µM, a TGI [7] of over 100 µM and a TGI [9] of over 100 µM.
`O=C(Nc1ccc([N+](=O)[O-])cc1)c1cc2ccccc2cc1O` showed a GI50 [1] of 0.221 µM, a TGI [1] of 0.534 µM and a GI50 [3] of 0.294 µM. For the same compound, the TGI [3] was 1.15 µM, the GI50 [4] was 0.294 µM and the TGI [4] was 1.42 µM. For the same compound, the GI50 [5] was 0.36 µM, the TGI [5] was 13.1 µM and the GI50 [6] was 0.388 µM. The TGI [6] was 4.94 µM, the GI50 [10] was 1.25 µM and the TGI [10] was 4.8 µM. It also gave a GI50 [7] of 0.397 µM, a TGI [7] of 15.8 µM and a GI50 [8] of 0.268 µM. For the same compound, the TGI [8] was 1.61 µM, the GI50 [9] was 0.348 µM and the TGI [9] was 5.92 µM.
`COC(=O)C1=C2CO[C@@H]3C[C@H]4C(C)(C)CCC[C@]4(C)C(=CC1)[C@]23C` was tested, and the GI50 [1] was 20.8 µM, the TGI [1] was 43.2 µM and the GI50 [2] was 32.6 µM. It also gave a TGI [2] of over 100 µM, a GI50 [3] of 60.7 µM and a TGI [3] of over 100 µM. It also gave a GI50 [4] of 29.8 µM, a TGI [4] of over 100 µM and a GI50 [5] of 43.4 µM. It also gave a TGI [5] of over 100 µM, a GI50 [6] of 72.7 µM and a TGI [6] of over 100 µM. It also gave a GI50 [7] of 11.1 µM, a TGI [7] of 32.2 µM and a GI50 [8] of 29.4 µM. It also gave a TGI [8] of over 100 µM, a GI50 [9] of 35.1 µM and a TGI [9] of over 100 µM.
Work on `[N-]=[N+]=NC(c1cn(C2CC(O)C(CO)O2)c(=O)[nH]c1=O)C(I)I` (centres undefined) yielded a TGI [1] of over 100 µM, a TGI [2] of over 100 µM and a TGI [3] of over 100 µM. For the same compound, the TGI [4] was over 100 µM, the TGI [5] was over 100 µM and the TGI [6] was over 100 µM. It also gave a TGI [10] of over 100 µM, a TGI [7] of over 100 µM and a TGI [9] of over 100 µM.
In the case of `COc1ccc(CC(C#N)c2cc(OC)c(OC)c(OC)c2)cc1` (centres undefined), the TGI [1] is reported as 2.7 µM, the TGI [2] is reported as over 100 µM and the TGI [3] is reported as over 100 µM. It also gave a TGI [4] of 1.96 µM, a TGI [5] of 6.32 µM and a TGI [6] of 0.231 µM. It also gave a TGI [7] of 0.113 µM, a TGI [8] of 0.135 µM and a TGI [9] of over 79.9 µM.
Work on `O=C(O)CCc1nc(-c2ccccc2)c(-c2ccccc2)o1` yielded a TGI [1] of over 100 µM, a TGI [2] of over 100 µM and a TGI [4] of over 100 µM. For the same compound, the TGI [5] was over 100 µM, the TGI [6] was over 100 µM and the TGI [7] was over 100 µM. The TGI [8] was over 100 µM and the TGI [9] was over 100 µM.
In the case of `CCC(C)c1cnc(CC(C)C)c(=O)[nH]1` (centres undefined), the TGI [1] is reported as over 100 µM, the TGI [2] is reported as over 100 µM and the TGI [3] is reported as over 100 µM. For the same compound, the TGI [4] was over 100 µM, the TGI [5] was over 100 µM and the TGI [10] was over 100 µM. The TGI [7] was over 100 µM and the TGI [9] was over 100 µM.
With `NCCCn1c2c(c3ccc([N+](=O)[O-])cc3c1=O)C(=O)c1cc(Cl)ccc1-2` the GI50 [1] was under 0.0151 µM, the TGI [1] was 0.25 µM and the GI50 [2] was under 0.01 µM. The TGI [2] was 0.0318 µM, the GI50 [3] was under 0.01 µM and the TGI [3] was 0.122 µM. The GI50 [4] was under 0.01 µM, the TGI [4] was 0.055 µM and the GI50 [5] was under 0.01 µM. It also gave a TGI [5] of 0.123 µM, a GI50 [6] of under 0.01 µM and a TGI [6] of 0.0613 µM. The GI50 [10] was under 0.0138 µM, the TGI [10] was 0.119 µM and the GI50 [9] was under 0.01 µM. For the same compound, the TGI [9] was 0.146 µM.
